Like-named read-outs stand apart in the source and are kept apart here.
Experiments:
[1] = MTT cell viability assay; type: cell-based, murine; conditions: mouse, CCL-1 normal fibroblast cells (adherent); CCL-1, MTT, 72 h exposure, ± SD; read-out: In vitro cytotoxicity IC50
Experimental: (§1) To evaluate the biocompatibility of the hybrid compounds, their in vitro antiproliferative activity was assessed in a panel of human malignant cell lines of different origin (K-562 and LAMA-84 suspension-growing myeloid leukemia cells, positive for the Philadelphia chromosome, and the urothelial bladder carcinoma cell line T-24 of adherent type). Non-malignant murine fibroblast cells (CCL-1) were also used as a screening platform. All cell lines were purchased from the German Collection of Microorganisms and Cell Cultures (DSMZ GmbH, Braunschweig, Germany). Cell cultures were cultivated in a growth medium RPMI 1640 supplemented with 10% fetal bovine serum (FBS), and 5% L-glutamine and were incubated under standard conditions of 37 °C and 5% humidified CO2 atmosphere. The effects of the newly synthesized anthranilic derivatives on cell viability were measured using a validated colorimetric assay for evaluating cell viability, known as the Mosmann MTT method. Exponential-phased cells were harvested and seeded (100 μL/well) in 96-well plates at the appropriate density (3 × 10^5 for the suspension cultures LAMA-84 and K-562 and 1.5 × 10^5 for the adherent T-24 and CCL-1 cells). Following a 24 h incubation, cells were treated with various concentrations of the experimental compounds in the concentration range of 200–12.5 μM. After an exposure time of 72 h, filter-sterilized MTT substrate solution (5 mg/mL in PBS) was added to each well of the culture plate. A further 2–4 h incubation allowed for the formation of purple insoluble formazan crystals. The latter was dissolved in isopropyl alcohol solution containing 5% formic acid prior to absorbance measurement at 550 nm. Collected absorbance values were blanked against MTT and isopropanol solution and normalized to the mean value of untreated control (100% cell viability).

[2] = MTT cell viability assay; type: cell-based; conditions: human, 72 h exposure, ± SD, read-out: In vitro cytotoxicity IC50
Experimental: as §1

[3] = target: T1, human albumin (Homo sapiens, UniProt P02768); test: Inhibition of albumin denaturation (anti-inflammatory activity); type: biochemical; conditions: heat-induced denaturation
T1 construct: purchased Octapharma (IP) SPRL Albunorm 20
Experimental: Anti-denaturation assay was conducted as described by Kumari et al. with slight modifications. The reaction mixture consisted of 0.5 mL of 5% aqueous solution of human albumin (Albunorm 20, Octapharma (IP) SPRL, 1070 Anderlecht, Belgium) and 0.2 mL of the tested compound, dissolved in DMSO, at different concentrations (20–500 μg/mL). The samples were incubated at 37 °C for 15 min. After that, 2.5 mL phosphate-buffered saline (pH 6.3) was added to each tube and the samples were heated for 30 min to 80 °C and then cooled for 5 min. Turbidity was measured spectrophotometrically at 660 nm (Cary 60 UV-Vis, Agilent Technologies, Santa Clara, CA, USA). For the blank sample, a mixture of 2.5 mL buffer and 0.2 mL DMSO was used instead of the compounds, while the product control test lacked the compounds’ concentration having 0.5 mL serum albumin, and 2.5 mL buffer only. The percentage inhibition of protein denaturation was calculated as follows:Percentage of inhibition denaturation = (Absorbancecontrol − Absorbancesample) / Absorbancecontrol × 100
The control represents 100% protein denaturation.
Commercially available over-the-counter non-steroidal anti-inflammatory drugs diclofenac sodium and acetylsalicylic acid were used for comparison. Their anti-inflammatory effect was determined as a percentage of inhibition of albumin denaturation following the same protocol as for the novel compounds.

[4] = system: Aspergillus niger ATCC 1015; test: Antimicrobial activity, agar well diffusion; type: cell-based; conditions: Dose 0.6 mg/disk, dwell = 6 mm
Text: (§2) Twenty tested microorganisms including six Gram-positive bacteria (Bacillus subtilis ATCC 6633, Bacillus amyloliquefaciens 4BCL-YT, Staphylococcus aureus ATCC 25923, Listeria monocytogenes NBIMCC 8632, Enterococcus faecalis ATCC 19433), six Gram-negative bacteria (Salmonella enteritidis ATCC 13076, Klebsiella sp.—clinical isolate, Escherichia coli ATCC 25922, Proteus vulgaris ATCC 6380, Pseudomonas aeruginosa ATCC 9027), two yeasts (Candida albicans NBIMCC 74, Saccharomyces cerevisiae ATCC 9763), and six fungi (Aspergillus niger ATCC 1015, Aspergillus flavus, Penicillium sp., Rhizopus sp., Mucor sp.—plant isolates, Fusarium moniliforme ATCC 38932) from the collection of the Department of Microbiology at the University of Food Technologies—Plovdiv, Bulgaria, were selected for the antimicrobial activity test. The antimicrobial activity of the samples was determined by the agar well diffusion method. The tested bacteria B. subtilis and B. amyloliquefaciens were cultured on LBG agar at 30 °C. The test bacteria S. aureus, L. monocytogenes, E. faecalis, S. enteritidis, Klebsiella sp., E. coli, P. vulgaris, and P. aeruginosa were cultured on LBG agar at 37 °C for 24 h. The yeast C. albicans was cultured on MEA at 37 °C, while S. cerevisiae was cultured on MEA at 30 °C for 24 h. The fungi A. niger, A. flavus, Penicillium sp., Rhizopus sp., Mucor sp., and F. moniliforme were grown on MEA at 30 °C for 7 days or until sporulation. The inocula of the tested bacteria/yeasts was prepared by homogenization of a small amount of biomass in 5 mL of sterile 0.5% NaCl. The inocula of tested fungi were prepared by the addition of 5 mL of sterile 0.5% NaCl into the tubes. After stirring by vortex V-1 plus (Biosan), they were filtered and replaced in other tubes before use. The number of viable cells and fungal spores was determined using a bacterial counting chamber Thoma (Poly-Optik, GmbH, Bad Blankenburg, Germany). Their final concentrations were adjusted to 10^8 cfu/mL for bacterial/yeast cells and 10^5 cfu/mL for fungal spores and then inoculated in preliminarily melted and tempered at 45–48 °C LBG/MEA agar media. Next, the inoculated media were transferred in a quantity of 18 mL in sterile Petri plates (d = 90 mm) (Gosselin™, Hazebrouck, France) and allowed to harden. Then, six wells (d = 6 mm) per plate were cut, and triplicates of 60 μL of each extract were pipetted into the agar wells. The Petri plates were incubated in identical conditions. The antimicrobial activity was determined by measuring the diameter of the inhibition zones around the wells on the 24th and 48th h of incubation. Tested microorganisms with inhibition zones of 18 mm or more were considered sensitive; moderately sensitive were those in which the zones were from 12 to 18 mm; resistant were those in which the inhibition zones were up to 12 mm or completely missing.

[5] = system: Salmonella enteritidis ATCC 13076; test: Antimicrobial activity, agar well diffusion; type: cell-based; conditions: Dose 0.6 mg/disk, dwell = 6 mm
Text: as §2

[6] = system: Escherichia coli ATCC 25922; test: Antimicrobial activity, agar well diffusion; type: cell-based; conditions: Dose 0.6 mg/disk, dwell = 6 mm
Text: as §2

[7] = system: Micrococcus luteus 2YC-YT; test: Antimicrobial activity, agar well diffusion; type: cell-based; conditions: Dose 0.6 mg/disk, dwell = 6 mm
Text: as §2

[8] = system: Aspergillus flavus; test: Antimicrobial activity, agar well diffusion; type: cell-based; conditions: Dose 0.6 mg/disk, dwell = 6 mm
Text: as §2

[9] = system: Bacillus subtilis ATCC 6633; test: Antimicrobial activity, agar well diffusion; type: cell-based; conditions: Dose 0.6 mg/disk, dwell = 6 mm
Text: as §2

[10] = system: Rhizopus sp.; test: Antimicrobial activity, agar well diffusion; type: cell-based; conditions: Dose 0.6 mg/disk, dwell = 6 mm
Text: as §2

[11] = system: Pseudomonas aeruginosa ATCC 9027; test: Antimicrobial activity, agar well diffusion; type: cell-based; conditions: Dose 0.6 mg/disk, dwell = 6 mm
Text: as §2

[12] = system: Penicillium chrysogenum; test: Antimicrobial activity, agar well diffusion; type: cell-based; conditions: Dose 0.6 mg/disk, dwell = 6 mm
Text: as §2

[13] = system: Enterococcus faecalis ATCC 29212; test: Antimicrobial activity, agar well diffusion; type: cell-based; conditions: Dose 0.6 mg/disk, dwell = 6 mm
[14] = system: Klebsiella pneumoniae ATCC 13883; test: Antimicrobial activity, agar well diffusion; type: cell-based; conditions: Dose 0.6 mg/disk, dwell = 6 mm
[15] = system: Salmonella typhimurium NBIMCC 1672; test: Antimicrobial activity, agar well diffusion; type: cell-based; conditions: Dose 0.6 mg/disk, dwell = 6 mm
Text: as §2

[16] = system: Proteus vulgaris ATCC 6380; test: Antimicrobial activity, agar well diffusion; type: cell-based; conditions: Dose 0.6 mg/disk, dwell = 6 mm
Text: as §2

[17] = system: Fusarium moniliforme ATCC 38932; test: Antimicrobial activity, agar well diffusion; type: cell-based; conditions: Dose 0.6 mg/disk, dwell = 6 mm
Text: as §2

[18] = system: Saccharomyces cerevisiae ATCC 9763; test: Antimicrobial activity, agar well diffusion; type: cell-based; conditions: Dose 0.6 mg/disk, dwell = 6 mm
Text: as §2

[19] = system: Bacillus amyloliquefaciens 4BCL-YT; test: Antimicrobial activity, agar well diffusion; type: cell-based; conditions: Dose 0.6 mg/disk, dwell = 6 mm
Text: as §2

[20] = system: Listeria monocytogenes NBIMCC 8632; test: Antimicrobial activity, agar well diffusion; type: cell-based; conditions: Dose 0.6 mg/disk, dwell = 6 mm
Text: as §2

[21] = system: K-562, LAMA-84, T-24, CCL-1 cell lines; set-up: method as in PMID 36831141; conditions: reference spasmolytic drug; cited from earlier work
[22] = system: Gram-positive bacteria, Gram-negative bacteria, yeasts and fungi; set-up: method as in PMID 36831141; conditions: same concentration range; cited from earlier work
[23] = K-562 myeloid leukemia cells (suspension), K-562, MTT
[24] = LAMA-84 myeloid leukemia cells (suspension), LAMA-84, MTT
[25] = T-24 urothelial bladder carcinoma cells (adherent), T-24, MTT

T1 sequence (P02768 25-609): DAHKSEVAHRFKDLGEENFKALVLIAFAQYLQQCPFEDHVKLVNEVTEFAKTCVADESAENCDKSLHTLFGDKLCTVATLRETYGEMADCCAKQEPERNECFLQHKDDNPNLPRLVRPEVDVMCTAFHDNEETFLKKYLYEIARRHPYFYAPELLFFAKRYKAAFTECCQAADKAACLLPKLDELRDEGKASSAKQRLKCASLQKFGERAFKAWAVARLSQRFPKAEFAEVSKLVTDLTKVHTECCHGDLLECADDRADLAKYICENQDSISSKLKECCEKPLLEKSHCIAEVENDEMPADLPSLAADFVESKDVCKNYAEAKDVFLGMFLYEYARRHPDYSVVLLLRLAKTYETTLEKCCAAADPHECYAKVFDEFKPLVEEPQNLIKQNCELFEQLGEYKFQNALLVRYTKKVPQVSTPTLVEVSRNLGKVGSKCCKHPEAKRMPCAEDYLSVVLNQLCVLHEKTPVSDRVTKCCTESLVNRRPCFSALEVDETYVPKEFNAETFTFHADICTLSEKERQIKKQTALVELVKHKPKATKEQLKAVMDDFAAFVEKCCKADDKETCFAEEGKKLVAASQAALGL

SMILES | IC50 at 72 h [1] | IC50 at 72 h [2, 23] | IC50 at 72 h [2, 24] | IC50 at 72 h [2, 25] | IC50 [3] | Inhibition Zones [4] | Inhibition Zones [5] | Inhibition Zones [6] | Inhibition Zones [7] | Inhibition Zones [8] | Inhibition Zones [9] | Inhibition Zones [10] | Inhibition Zones [11] | Inhibition Zones [12] | Inhibition Zones [14] | Inhibition Zones [16] | Inhibition Zones [17] | Inhibition Zones [18] | Inhibition Zones [20] | further results
O=C(Cc1ccccc1)Nc1ccccc1C(=O)NCCc1cccc(Cl)c1 [Compound 4c, N-(3-chlorophenethyl)-2-(2-phenylacetamido)benzamide] | 69.5 ± 6.1 µM | 27.4 ± 2.4 µM | 31.6 ± 1.1 µM | > 200 µM | 1710 µM | 10 mm | 8 mm | 10 mm | 12 mm | 8 mm | 9 mm | 8 mm | 10 mm | 8 mm | – | – | – | – | – | –
O=C(Nc1ccccc1C(=O)NCCc1cccc(Cl)c1)c1ccccc1Cl [Compound 4d, 2-chloro-N-(2-((3-chlorophenethyl)carbamoyl)phenyl)benzamide] | > 200 µM | 99.2 ± 8.8 µM | 183 ± 13.3 µM | > 200 µM | 1670 µM | 10 mm | 10 mm | 12 mm | 12 mm | 11 mm | 11 mm | 9 mm | 10 mm | 15 mm | 8 mm | 8 mm | 8 mm | 8 mm | 11 mm | Inhibition Zones [13]: 8 mm; Inhibition Zones [15]: 12 mm; Inhibition Zones [19]: 10 mm
O=C(NCCc1cccc(Cl)c1)c1ccccc1NC(=O)C(Cl)c1ccccc1 (centres unmarked) [Compound 4e, 2-(2-chloro-2-phenylacetamido)-N-(3-chlorophenethyl)benzamide] | 69.1 ± 4.6 µM | 102 ± 7.9 µM | 193 ± 14.7 µM | 120 ± 9.9 µM | – | 10 mm | 11 mm | 10 mm | 9 mm | 8 mm | 10 mm | 9 mm | 10 mm | 8 mm | 16 mm | 8 mm | 8 mm | 8 mm | 9 mm | –
CCN(CCCCOC(=O)c1ccc(OC)c(OC)c1)C(C)Cc1ccc(OC)cc1 (centres unmarked) [mebeverine] | – | – | – | – | – | – | – | – | – | – | – | – | – | – | – | – | – | – | – | half-inhibitory concentrations [21]: under the hundred-micromolar range; antimicrobial activity (overall, in words) [22]: did not show any antimicrobial activity
